Measurements taken from publication PMC8414802, “Hair Cell Generation in Cochlear Culture Models Mediated by Novel γ-Secretase Inhibitors” (Frontiers in Cell and Developmental Biology, 2021).

Columns and labels:
[1] = system: hair cells in rat OC explants exposed to S. pneumoniae; assay: OC explants after S. pneumoniae-induced damage; assay type: cell-based
Protocol: To induce ototoxic damage, medium was removed from the OC cultures on the day after dissection and either 200 μM sisomicin (Sigma) in full otic medium, or 10^8 cfu/ml Streptococcus pneumoniae (described below) in ampicillin-free and FBS-free otic medium were added under the transwell membrane (lower compartment) of the cultivation system. After 2 h of exposure to the ototoxic insult, OCs were carefully washed 3 times and culture was continued for 4 days in fresh full otic medium.
A clinical isolate of S. pneumoniae, serotype 3 was used as previously described ([Leib et al., 2000]; [Perny et al., 2017]). […] Bacteria were diluted to the desired optical density (OD570 nm) and the final inoculum concentration was determined by plating serial dilutions on Columbia sheep blood agar. […]
(§1) Dividing cells were labeled with, 5-ethyl-2′-deoxyuridine (EdU) and detected with Click-it Plus kit (Life Technologies). […]
(§2) Image processing was performed with the open-source image processing software FIJI, version 2.0 ([Schindelin et al., 2012]). Hair cells were quantified by counting Pou4f3 or Myo7a positive cells of the organ of Corti at three random microscopic fields for each cochlear region (base, middle, and apex) covering in total at least 1,200 μm. The number of hair cells (IHCs and OHCs) is expressed as unit per 100 μm. […]

[2] = system: Pou4f3 positive hair cells in cochlear sensory epithelium from P2 rats; assay: Hair cell counts in rat organ of Corti explants; assay type: cell-based; conditions: rat OC explants, 4 days, apex/middle/base
Protocol: OC explants were isolated from postnatal day 2 (P2) Wistar rats, P0-P2 mice (Lgr5-GFP or Atoh1-nGFP mice). Dissection of the cochlea under a stereomicroscope (Nikon SMZ800, Japan) allowed OC separation from stria vascularis and modiolus, and the sensory epithelium was plated with hair cells facing up on Cell-Tak (Corning, United States)-coated transwell-clear inserts (6-well format, 0.4 μm pore, Corning, United States). Dissection medium was exchanged for 1.5 ml full otic medium supplemented with 10% FBS (Invitrogen) and 0.01% Ampicillin (Sigma), added under the insert membrane, maintaining the OC under a thin film of medium during culture at 37°C. 5-ethyl-2′-deoxyuridine (EdU, 5 μM, Life Technologies) was added directly in the medium when indicated. […]
as §1, §2

COc1ccc2c(c1)N1CCC(C)(C)C1=CC(=O)[C@H]2NC(=O)[C@H](C)NC(=O)CCC(F)(F)F [CPD3]
OHCs after S. pneumoniae damage compared to DMSO ([1]; 4 days treatment after 2 h exposure): more OHCs in all turns of the organ of Corti | Pou4f3/Sox2 double-positive cells after S. pneumoniae damage ([1]; apical domain only, not statistically significant): increased occurrence | Region of OHC induction [2]: limited to the apical region
